The experiment deals with Human dermal fibroblasts. In words: Stimulation of collagen synthesis, procollagen type I C-peptide (PIP) EIA on conditioned medium. In kind it is cell-based. The settings on record: compound at 0.0005% in DMSO, triplicate, 48-hour incubation; increase in collagen over the DMSO control. As for the experimental part:
Human dermal fibroblasts (Cascade Biologics, Portland, Oreg.) were plated at 10,000 cells/well in 96-well culture plates in supplemented medium (DMEM, 10% Fetal Bovine Serum, 1% Penicillin/Streptomycin and 1% L-Glutamine) overnight in humidified atmosphere of 10% CO2 at 37° C. […] DMSO solution was used a control. Following 48-hour incubation, the plates were removed from the incubator and the medium from each well was collected for the procollagen assay. Collagen production was measured using procollagen type I C-peptide (PIP) EIA kit (Takara Bio, Inc., Japan). […] The ELISA plate was incubated at 37° C. for 3 hours before the wells were washed four times with 400 μl of 1×PBS. At the end of wash, 100 μl of substrate solution (supplied with kit) was added to the wells and incubated at room temperature for 15 minutes. The reaction was stopped by adding 100 μl of 1N sulfuric acid to the wells. The absorbance was measured on a spectrophotometer at 450 nm wavelength. The amount of procollagen peptide in the conditioned medium was calculated from the standard curve. The stimulation of collagen production was shown as an increase in collagen over the control.

Consider `CCOCCCNC(=O)c1coc(CN(CCCOCC)C(=O)c2ccc(Cl)cc2)n1` [Compound 2], for which the “% Collagen Stimulation” value is 67.86%. On to `CCOCCCNC(=O)c1coc(CN(CCCOCC)C(=O)c2cccc(Br)c2)n1` [Compound 1], for which the “% Collagen Stimulation” value was found to be 68.77%.

Source of the values: US9056842B2, “Cosmetic use of substituted amino heterocylic carbamoyl analogs and related compounds” (Avon Products, Inc., priority 2011, dated 2015).
